In ChEMBL document CHEMBL3991601, “The target landscape of clinical kinase drugs” (Science, 2017):
Activity calls are given as the source filed them. Rule as the data show it, for most assays here: actives have a measured Kd and inactives only a lower limit.

How the values were obtained:
[1] = biological target: T1, Peroxisomal acyl-coenzyme A oxidase 3 (Homo sapiens, UniProt O15254)
T1 sequence (O15254 whole entry): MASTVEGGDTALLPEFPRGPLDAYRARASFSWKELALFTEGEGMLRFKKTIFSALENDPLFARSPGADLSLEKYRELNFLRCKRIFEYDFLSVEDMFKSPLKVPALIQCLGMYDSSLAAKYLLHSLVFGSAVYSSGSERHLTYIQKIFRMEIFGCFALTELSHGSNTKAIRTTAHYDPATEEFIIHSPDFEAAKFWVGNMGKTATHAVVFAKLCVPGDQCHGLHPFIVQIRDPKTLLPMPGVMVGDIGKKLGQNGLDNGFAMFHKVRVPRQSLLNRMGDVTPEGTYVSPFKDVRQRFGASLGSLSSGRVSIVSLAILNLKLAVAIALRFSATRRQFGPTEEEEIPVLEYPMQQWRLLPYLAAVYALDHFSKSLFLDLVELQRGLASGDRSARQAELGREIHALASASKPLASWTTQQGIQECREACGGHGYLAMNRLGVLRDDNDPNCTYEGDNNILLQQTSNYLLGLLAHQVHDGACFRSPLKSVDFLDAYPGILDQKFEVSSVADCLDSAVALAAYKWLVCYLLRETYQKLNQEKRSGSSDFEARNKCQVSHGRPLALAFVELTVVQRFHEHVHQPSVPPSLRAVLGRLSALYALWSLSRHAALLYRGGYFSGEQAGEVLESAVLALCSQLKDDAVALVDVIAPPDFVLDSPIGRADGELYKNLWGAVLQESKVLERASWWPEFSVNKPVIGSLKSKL

[2] = biological target: Deoxycytidine kinase (Homo sapiens, UniProt P27707)
[3] = biological target: T2, Activin receptor type-1 (Homo sapiens, UniProt Q04771)
T2 sequence (Q04771 whole entry): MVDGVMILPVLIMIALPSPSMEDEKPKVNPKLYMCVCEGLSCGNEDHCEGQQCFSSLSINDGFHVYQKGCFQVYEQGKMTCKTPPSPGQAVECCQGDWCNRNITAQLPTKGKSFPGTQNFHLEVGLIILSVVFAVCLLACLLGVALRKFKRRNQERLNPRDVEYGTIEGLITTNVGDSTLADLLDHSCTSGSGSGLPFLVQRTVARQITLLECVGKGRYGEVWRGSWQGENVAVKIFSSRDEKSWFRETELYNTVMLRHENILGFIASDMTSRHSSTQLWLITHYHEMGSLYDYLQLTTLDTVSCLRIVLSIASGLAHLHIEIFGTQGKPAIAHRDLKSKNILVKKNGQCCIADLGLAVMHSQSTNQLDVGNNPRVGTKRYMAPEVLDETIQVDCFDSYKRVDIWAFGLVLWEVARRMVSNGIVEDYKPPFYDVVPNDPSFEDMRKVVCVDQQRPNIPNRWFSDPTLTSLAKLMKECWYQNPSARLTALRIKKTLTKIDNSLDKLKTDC

[4] = biological target: Epithelial discoidin domain-containing receptor 1 (Homo sapiens, UniProt Q08345)
[5] = biological target: Eukaryotic translation initiation factor 2-alpha kinase 1 (Homo sapiens, UniProt Q9BQI3)
[6] = biological target: Ephrin type-A receptor 4 (Homo sapiens, UniProt P54764)
[7] = biological target: T3, Serine/threonine-protein kinase D2 (Homo sapiens, UniProt Q9BZL6)
T3 sequence (Q9BZL6 whole entry): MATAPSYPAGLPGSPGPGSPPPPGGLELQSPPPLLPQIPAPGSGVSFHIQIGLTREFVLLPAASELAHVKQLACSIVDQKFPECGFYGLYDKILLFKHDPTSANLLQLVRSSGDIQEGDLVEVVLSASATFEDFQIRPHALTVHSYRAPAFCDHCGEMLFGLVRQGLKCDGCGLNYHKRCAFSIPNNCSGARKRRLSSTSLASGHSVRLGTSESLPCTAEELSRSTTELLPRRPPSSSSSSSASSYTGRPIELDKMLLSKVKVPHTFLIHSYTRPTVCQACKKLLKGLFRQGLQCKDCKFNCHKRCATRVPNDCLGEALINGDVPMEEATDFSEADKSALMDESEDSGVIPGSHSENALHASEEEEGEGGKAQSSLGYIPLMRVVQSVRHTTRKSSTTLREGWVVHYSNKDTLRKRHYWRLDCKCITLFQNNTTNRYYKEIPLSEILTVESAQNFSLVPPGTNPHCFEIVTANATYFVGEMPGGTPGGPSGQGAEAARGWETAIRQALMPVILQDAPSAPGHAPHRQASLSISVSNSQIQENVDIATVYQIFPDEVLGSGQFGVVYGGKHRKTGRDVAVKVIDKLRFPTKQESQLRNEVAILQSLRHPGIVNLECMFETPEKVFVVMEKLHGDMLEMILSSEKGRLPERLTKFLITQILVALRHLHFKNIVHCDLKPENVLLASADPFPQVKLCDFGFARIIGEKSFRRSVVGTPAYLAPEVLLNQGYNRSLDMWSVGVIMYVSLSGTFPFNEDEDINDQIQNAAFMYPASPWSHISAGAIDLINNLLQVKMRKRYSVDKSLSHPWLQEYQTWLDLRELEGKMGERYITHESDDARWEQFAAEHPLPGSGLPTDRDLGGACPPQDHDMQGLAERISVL

[8] = biological target: cAMP-dependent protein kinase catalytic subunit beta (Homo sapiens, UniProt P22694)
Also: in the data inactive means no Kd found up to 30 µM.

Sequence of Eukaryotic translation initiation factor 2-alpha kinase 1 (Q9BQI3 whole entry): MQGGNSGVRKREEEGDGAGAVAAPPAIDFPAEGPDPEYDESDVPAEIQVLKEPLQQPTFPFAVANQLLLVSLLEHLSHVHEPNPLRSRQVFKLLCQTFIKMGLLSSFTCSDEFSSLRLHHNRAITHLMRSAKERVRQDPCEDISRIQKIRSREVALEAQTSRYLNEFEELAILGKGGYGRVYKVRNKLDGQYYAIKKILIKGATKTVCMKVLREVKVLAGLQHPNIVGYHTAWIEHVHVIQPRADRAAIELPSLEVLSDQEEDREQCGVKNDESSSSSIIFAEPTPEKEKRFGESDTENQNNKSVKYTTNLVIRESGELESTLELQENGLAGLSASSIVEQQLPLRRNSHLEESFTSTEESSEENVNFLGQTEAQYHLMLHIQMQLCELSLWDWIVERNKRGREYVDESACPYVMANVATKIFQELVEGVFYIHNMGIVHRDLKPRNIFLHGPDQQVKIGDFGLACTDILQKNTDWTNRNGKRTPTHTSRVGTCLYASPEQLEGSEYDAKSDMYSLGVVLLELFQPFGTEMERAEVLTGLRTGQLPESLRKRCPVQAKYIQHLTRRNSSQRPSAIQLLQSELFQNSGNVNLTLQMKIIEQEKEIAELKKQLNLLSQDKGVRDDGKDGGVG
Sequence of Ephrin type-A receptor 4 (P54764 whole entry): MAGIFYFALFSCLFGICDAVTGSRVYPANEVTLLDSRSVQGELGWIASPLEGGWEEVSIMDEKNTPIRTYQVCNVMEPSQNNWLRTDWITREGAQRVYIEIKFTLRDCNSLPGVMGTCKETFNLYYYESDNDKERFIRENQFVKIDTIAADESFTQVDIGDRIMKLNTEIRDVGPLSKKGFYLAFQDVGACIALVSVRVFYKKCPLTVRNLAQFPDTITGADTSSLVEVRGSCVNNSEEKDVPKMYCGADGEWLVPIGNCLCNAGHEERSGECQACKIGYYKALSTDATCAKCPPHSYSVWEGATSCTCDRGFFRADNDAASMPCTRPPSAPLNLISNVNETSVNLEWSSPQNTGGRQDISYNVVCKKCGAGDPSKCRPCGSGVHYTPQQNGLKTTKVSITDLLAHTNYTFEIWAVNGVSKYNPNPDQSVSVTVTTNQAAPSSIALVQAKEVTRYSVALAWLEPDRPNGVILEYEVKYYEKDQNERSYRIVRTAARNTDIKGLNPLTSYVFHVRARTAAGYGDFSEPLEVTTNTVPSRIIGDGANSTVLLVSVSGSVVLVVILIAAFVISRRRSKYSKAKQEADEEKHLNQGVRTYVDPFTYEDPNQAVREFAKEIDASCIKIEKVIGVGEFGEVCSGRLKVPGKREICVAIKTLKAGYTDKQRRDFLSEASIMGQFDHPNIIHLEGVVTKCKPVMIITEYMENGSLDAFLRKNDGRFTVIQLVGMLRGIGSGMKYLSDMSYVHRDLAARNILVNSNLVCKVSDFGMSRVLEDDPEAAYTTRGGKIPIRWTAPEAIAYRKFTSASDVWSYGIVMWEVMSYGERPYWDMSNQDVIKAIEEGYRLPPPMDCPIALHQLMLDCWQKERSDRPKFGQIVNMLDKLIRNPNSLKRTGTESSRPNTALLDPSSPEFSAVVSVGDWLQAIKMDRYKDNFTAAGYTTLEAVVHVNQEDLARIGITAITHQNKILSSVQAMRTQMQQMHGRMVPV
Sequence of Epithelial discoidin domain-containing receptor 1 (Q08345 whole entry, the tested form may be a part): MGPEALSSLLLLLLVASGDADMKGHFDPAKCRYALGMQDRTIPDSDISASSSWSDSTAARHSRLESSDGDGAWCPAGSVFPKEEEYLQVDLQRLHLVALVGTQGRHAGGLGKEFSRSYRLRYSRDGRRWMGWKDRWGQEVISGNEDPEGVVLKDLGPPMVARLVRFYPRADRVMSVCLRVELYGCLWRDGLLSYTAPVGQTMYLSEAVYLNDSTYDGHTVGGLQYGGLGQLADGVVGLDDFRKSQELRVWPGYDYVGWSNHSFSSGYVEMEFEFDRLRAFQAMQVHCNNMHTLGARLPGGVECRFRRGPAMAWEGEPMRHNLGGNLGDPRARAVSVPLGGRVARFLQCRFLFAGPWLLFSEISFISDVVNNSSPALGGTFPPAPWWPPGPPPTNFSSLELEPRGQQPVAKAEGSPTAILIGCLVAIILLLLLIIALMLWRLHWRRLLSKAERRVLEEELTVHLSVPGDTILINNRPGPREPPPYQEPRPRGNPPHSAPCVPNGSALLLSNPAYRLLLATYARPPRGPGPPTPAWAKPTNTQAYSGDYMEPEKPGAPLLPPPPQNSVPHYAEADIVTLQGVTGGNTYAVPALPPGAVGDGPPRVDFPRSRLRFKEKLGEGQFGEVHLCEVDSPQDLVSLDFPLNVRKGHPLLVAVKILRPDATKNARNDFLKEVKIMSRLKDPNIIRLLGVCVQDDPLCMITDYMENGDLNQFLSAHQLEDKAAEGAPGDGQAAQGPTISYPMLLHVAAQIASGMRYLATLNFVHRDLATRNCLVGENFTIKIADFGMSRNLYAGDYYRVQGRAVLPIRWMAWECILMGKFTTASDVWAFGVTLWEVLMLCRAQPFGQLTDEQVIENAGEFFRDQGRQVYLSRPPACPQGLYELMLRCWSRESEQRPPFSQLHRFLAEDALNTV
Sequence of Deoxycytidine kinase (P27707 whole entry): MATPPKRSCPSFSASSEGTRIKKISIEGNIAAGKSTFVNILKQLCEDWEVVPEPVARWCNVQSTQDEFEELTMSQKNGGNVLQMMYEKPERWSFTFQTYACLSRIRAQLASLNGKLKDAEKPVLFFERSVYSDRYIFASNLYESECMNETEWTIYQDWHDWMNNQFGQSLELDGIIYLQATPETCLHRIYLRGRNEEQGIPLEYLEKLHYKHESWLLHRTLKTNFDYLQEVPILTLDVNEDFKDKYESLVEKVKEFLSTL

For `COc1cc2c(Oc3ccc4[nH]c(C)cc4c3F)ncnc2cc1OCCCN1CCCC1` [CEDIRANIB], the Kd [1] was > 30 µM (inactive) and the Kd [2] was > 30 µM (inactive).

In the case of `O=S(=O)(c1cccc2cnccc12)N1CCCNCC1` [FASUDIL], the Kd [1] is reported as > 30 µM (inactive), the Kd [3] is reported as > 30 µM (inactive) and the Kd [2] is reported as > 30 µM (inactive). For the same compound, the Kd [4] was > 30 µM (inactive), the Kd [5] was > 30 µM (inactive) and the Kd [6] was > 30 µM (inactive). The Kd [7] was 6.42 µM (active).

In the case of `CCc1nc(C(N)=O)c(Nc2ccc(N3CCC(N4CCN(C)CC4)CC3)c(OC)c2)nc1NC1CCOCC1` [GILTERITINIB], the Kd [1] is reported as > 30 µM (inactive), the Kd [3] is reported as 0.039 µM (active) and the Kd [2] is reported as > 30 µM (inactive). The Kd [4] was > 30 µM (inactive), the Kd [6] was > 30 µM (inactive) and the Kd [8] was > 30 µM (inactive). For the same compound, the Kd [7] was > 30 µM (inactive).

For `C[C@]1(O)C[C@@H](c2nc(-c3ccc4ccc(-c5ccccc5)nc4c3)c3c(N)nccn32)C1` [LINSITINIB], the Kd [1] was > 30 µM (inactive), the Kd [3] was > 30 µM (inactive) and the Kd [2] was > 30 µM (inactive). For the same compound, the Kd [4] was > 30 µM (inactive), the Kd [5] was > 30 µM (inactive) and the Kd [6] was > 30 µM (inactive). For the same compound, the Kd [8] was > 30 µM (inactive).

In the case of `N#CCNC(=O)c1ccc(-c2ccnc(Nc3ccc(N4CCOCC4)cc3)n2)cc1` [MOMELOTINIB], the Kd [1] is reported as > 30 µM (inactive), the Kd [3] is reported as > 30 µM (inactive) and the Kd [2] is reported as > 30 µM (inactive). The Kd [4] was > 30 µM (inactive), the Kd [6] was > 30 µM (inactive) and the Kd [8] was > 30 µM (inactive). For the same compound, the Kd [7] was 0.531 µM (active).

With `CC1(C)CNc2cc(NC(=O)c3cccnc3NCc3ccncc3)ccc21` [MOTESANIB] the Kd [1] was > 30 µM (inactive) and the Kd [2] was > 30 µM (inactive).

`CN(c1ncccc1CNc1nc(Nc2ccc3c(c2)CC(=O)N3)ncc1C(F)(F)F)S(C)(=O)=O` [PF-00562271] was tested, and the Kd [1] was > 30 µM (inactive), the Kd [2] was > 30 µM (inactive) and the Kd [4] was > 30 µM (inactive). The Kd [5] was > 30 µM (inactive), the Kd [6] was > 30 µM (inactive) and the Kd [8] was > 30 µM (inactive).

`C=CC(=O)Nc1cccc(Nc2nc(Nc3ccc(N4CCN(C(C)=O)CC4)cc3OC)ncc2C(F)(F)F)c1` [ROCILETINIB] was tested, and the Kd [1] was > 30 µM (inactive), the Kd [3] was > 30 µM (inactive) and the Kd [2] was > 30 µM (inactive). The Kd [4] was > 30 µM (inactive), the Kd [5] was > 30 µM (inactive) and the Kd [6] was > 30 µM (inactive). For the same compound, the Kd [7] was > 30 µM (inactive).

For `Cn1cnc2c(F)c(Nc3ccc(Br)cc3Cl)c(C(=O)NOCCO)cc21` [SELUMETINIB], the Kd [1] was > 30 µM (inactive) and the Kd [2] was > 30 µM (inactive).

In the case of `CC(C)(O)CC(=O)NCCn1ccc2ncnc(Nc3ccc(Oc4cccc(C(F)(F)F)c4)c(Cl)c3)c21` [TAK-285], the Kd [1] is reported as > 30 µM (inactive), the Kd [3] is reported as > 30 µM (inactive) and the Kd [2] is reported as > 30 µM (inactive). The Kd [4] was > 30 µM (inactive), the Kd [5] was > 30 µM (inactive) and the Kd [6] was > 30 µM (inactive). The Kd [8] was > 30 µM (inactive).

With `COc1cc2c(N3CCN(C(=O)Nc4ccc(OC(C)C)cc4)CC3)ncnc2cc1OCCCN1CCCCC1` [TANDUTINIB] the Kd [1] was > 30 µM (inactive) and the Kd [2] was > 30 µM (inactive).

In the case of `CNC(=O)c1cccc(-c2ccc3c(N4CCOC[C@@H]4C)nc(N4CCOC[C@@H]4C)nc3n2)c1` [VISTUSERTIB], the Kd [1] is reported as > 30 µM (inactive), the Kd [3] is reported as > 30 µM (inactive) and the Kd [2] is reported as > 30 µM (inactive). For the same compound, the Kd [5] was > 30 µM (inactive), the Kd [6] was > 30 µM (inactive) and the Kd [8] was > 30 µM (inactive). For the same compound, the Kd [7] was > 30 µM (inactive).
